These are literature values, as cited in article PMC6972991 (Chemistry (Weinheim an Der Bergstrasse, Germany), 2019).

Consider `O=S(=O)(O)c1ccccc1` [benzenesulfonic acid], for which the pKa result is “≈ 4”.
